The results in this text go back to ChEMBL document CHEMBL1147370, “Selligueain A, a novel highly sweet proanthocyanidin from the rhizomes of Selliguea feei” (J Nat Prod, 1993).

Data set [1] deals with Mus musculus. In words: Acute toxicity in Swiss-Webster mouse at 1 g/kg, po. The format is organism-based. The following applies: in vivo, 1000 mg/kg.
Data set [2] has as its system Mus musculus. Briefly: Acute toxicity in Swiss-Webster mouse at 2 g/kg, po. The format is organism-based. The following applies: in vivo, 2000 mg/kg.

With `Oc1ccc([C@H]2Oc3c(c(O)cc4c3[C@H]3c5c(O)cc(O)cc5O[C@@](c5ccc(O)cc5)(O4)[C@@H]3O)[C@H](c3c(O)cc(O)c4c3O[C@H](c3ccc(O)cc3)[C@@H](O)C4)[C@H]2O)cc1` [SELLIGUEAIN A], the Activity result in data set [1] and in data set [2] was “Non-toxic” each time.
